Experimental data published in publication PMC3582038 (Bioorganic & medicinal chemistry, 2012).
≈ marks a conversion by molar mass, not a printed value. Marks after values point to notes of the source that are not given here.

How the values were obtained:
[1] = In vivo pharmacokinetics in rats; conditions: for toxicity in both administration modes: IV 10 mg/kg and PO 100 mg/kg; for unbound peak plasma concentration as multiple of the MIC: peak plasma concentration converted to unbound; for half-life: male, Sprague-Dawley, rat, plasma, iv, 10 mg/kg; for fe (fraction of dose excreted unchanged in urine): mean (SD)
E. coli K12 ΔtolC = assay type: cell-based; conditions: efflux pump deficient
M. tuberculosis = assay: Antituberculosis MIC, microbroth dilution; assay type: cell-based; conditions: M. tuberculosis MIC relative to compound 11
[2] = tested on: Strep. pyogenes ATCC 700294; assay: Antibacterial spectrum MIC, S. pyogenes; assay type: cell-based; conditions: Streptococcus pyogenes, ATCC700294, read-out: MIC S. pyogenes
[3] = rats, based on a 10 mg/kg IV dose; ref [21],[22] (Linezolid), [23],[24] (Ofloxacin); cited from earlier work

| SMILES | toxicity in both administration modes ([1]; rats) | unbound peak plasma concentration as multiple of the MIC ([1]; rats, IV 10 mg/kg) [times the MIC] | MIC E. coli ΔtolC (E. coli K12 ΔtolC) [µg/mL] | further results |
| --- | --- | --- | --- | --- |
| O=[N+]([O-])c1ccc(C2=NOC(c3ccc(N4CCCCC4)cc3)C2)o1 (stereo not shown) [Compound 1] | non-toxic | 4.6 | – | – |
| O=[N+]([O-])c1ccc(C2=NOC(c3ccc(N4CCOCC4)cc3)C2)o1 (stereo not shown) [Compound 6, 4-(4-(3-(5-Nitrofuran-2-yl)-4,5-dihydroisoxazol-5-yl)phenyl)morpholine] | non-toxic | 5.0 | – | – |
| O=[N+]([O-])c1ccc(C2=NOC(c3ccc(N4CCOCC4)nc3)C2)o1 (stereo not shown) [Compound 7, 4-(5-(3-(5-Nitrofuran-2-yl)-4,5-dihydroisoxazol-5-yl)pyridin-2-yl)morpholine] | non-toxic | 9.8 | 6.25 (≈ 18.2 µM) | half-life [1]: 36.6 to 43.2 min; fe (fraction of dose excreted unchanged in urine) ([1]; rats): 0.021 (0.01) % |
| O=[N+]([O-])c1ccc(C2=NOC(c3ccc(N4CCOCC4)c(F)c3)C2)o1 (stereo not shown) [Compound 8, 4-(2-Fluoro-4-(3-(5-nitrofuran-2-yl)-4,5-dihydroisoxazol-5-yl)phenyl)morpholine] | – | – | 6.25 (≈ 17.3 µM) | – |
| O=[N+]([O-])c1ccc(C2=NOC(c3ccc(N4CC[S+]([O-])CC4)cc3)C2)o1 (stereo not shown) [Compound 12, 4-(4-(3-(5-nitrofuran-2-yl)-4,5-dihydroisoxazol-5-yl)phenyl)thiomorpholine 1-oxide] | – | – | – | fold weaker MIC value than 11 (M. tuberculosis): 8 fold |
| CN1CCN(c2ccc(C3CC(c4ccc([N+](=O)[O-])o4)=NO3)cc2)C(=O)C1 (stereo not shown) [Compound 15, 4-methyl-1-(4-(3-(5-nitrofuran-2-yl)-4,5-dihydroisoxazol-5-yl)phenyl)piperazin-2-one] | – | 0.71 | – | half-life [1]: 36.6 to 43.2 min; toxicity observed after IV dosing ([1]; rats, IV 10 mg/kg): seizures and death in one animal; deaths after oral administration ([1]; rats, PO 100 mg/kg): No animals died; fe (fraction of dose excreted unchanged in urine) ([1]; rats): 0.68 (0.44) % |
| CN1CCN(c2ccc(C3CC(c4ccc([N+](=O)[O-])o4)=NO3)cn2)C(=O)C1 (stereo not shown) [Compound 16, 4-methyl-1-(5-(3-(5-nitrofuran-2-yl)-4,5-dihydroisoxazol-5-yl)pyridin-2-yl)piperazin-2-one] | – | – | 6.25 (≈ 16.8 µM) | – |
| O=C1COCCN1c1ccc(C2CC(c3ccc([N+](=O)[O-])o3)=NO2)cn1 (stereo not shown) [Compound 19, 4-(5-(3-(5-nitrofuran-2-yl)-4,5-dihydroisoxazol-5-yl)pyridin-2-yl)morpholin-3-one] | – | – | – | MIC [2]: 1000 µg/mL (≈ 2800 µM) |
| CC1COc2c(N3CCN(C)CC3)c(F)cc3c(=O)c(C(=O)O)cn1c23 (stereo not shown) [Ofloxacin] | – | – | – | AUCo0-∞ [3]: 6.1–11.8 ^* hr mg/L |
